Source: patent US7557099B2, “Pyrrolobenzodiazepines as key intermediates in the synthesis of dimeric cytotoxic pyrrolobenzodiazepines” (Spirogen Limited, priority 2004, dated 2009)
pEC50, pIC50: −log10 of the molar value. Read-outs that look alike come from different tables or passages of the source.

Assays:
[1] = system: linear pBR322 DNA; assay: DNA cross-linking, electrophoretic assay (XL50); type: biochemical; conditions: concentration giving 50% cross-linked plasmid DNA; 2 hours, 37° C., pH 7.2
Method: The extent of DNA cross-linking induced by each PBD dimer was determined using the electrophoretic assay method of Hartley, et al. (Hartley, J. A., Berardini, M. D., and Souhami, R. L. (1991) Anal. Biochem. 193, 131-134) based on the principle that, following complete denaturation of linear pBR322 DNA (˜4,300 bp) to the single-stranded (SS) form, an interstrand cross-link results in renaturation to double-stranded (DS) in a neutral gel.
Closed-circular DNA was linearized with HindIII, then dephosphorylated and finally 5′-singly end-labelled using [γ^32P]-ATP and polynucleotide kinase. Reactions containing 30-40 ng of DNA and the test compound were carried out in aqueous TEOA (25 mM triethanolamine, 1 mM EDTA, pH 7.2) buffer at 37° C. in a final volume of 50 μl for 2 hours. Reactions were terminated by addition of an equal volume of stop solution (0.6 M NaOAc, 20 mM EDTA, 100 μg/ml tRNA) followed by precipitation with ethanol. Following centrifugation, the supernatant was discarded and the pellet dried by lyophilization. Samples were re-suspended in 10 μl of strand separation buffer (30% DMSO, 1 mM EDTA, 0.04% bromophenol blue and 0.04% xylene cylanol) and denatured by heating to 90° C. for 2.5 min, followed by immersion in an ice/water bath. Control non-denatured samples were re-suspended in 10 μl of non-denaturing buffer solution (0.6% sucrose, 0.04% bromophenol blue in aqueous TAE buffer [40 mM Tris, 20 mM acetic acid, 2 mM EDTA, pH 8.1]) and loaded directly onto the gel for comparison.
Electrophoresis was carried out for 14-16 h at 40 V using a 0.8% submerged agarose gel (20×25×0.5 cm) in TAE buffer. Gels were dried under vacuum for 2 hour at 80° C. onto one layer each of Whatman 3MM and DE8I filter papers using a BioRad 583 gel dryer. Autoradiographs were obtained after exposure of Hyperfilm-MP film (Amersham plc, U.K.) to the dried gel for either 4 hour with a screen (or over night, without a screen, to obtain a sharper image). Film bands were quantitated using a BioRad GS-670 imaging laser densitometer. Percentage cross-linking was calculated by measuring the total DNA in each lane (summed density for the double-stranded [DS] and single-stranded [SS] bands) relative to the amount of cross-linked DNA (density of DS band alone). A dose-response curve was derived by plotting drug concentration against the determined percentage level of cross-linked DNA which was then analysed to determine the concentration of test compound that results in 50% cross-linked plasmid DNA (XL50).

[2] = system: approximately 60 human tumour cell lines; assay: NCI 60 cell screen, SRB assay; type: cell-based; conditions: Homo sapiens, 48 hour continuous exposure
Method: The National Cancer Institute (NCI), Bethesda, Md., USA has available an in vitro cytotoxicity screen which consists of approximately 60 human tumour cell lines against which compounds are tested at a minimum of five concentrations each differing 10-fold. A 48 hour continuous exposure protocol is used, where cell viability or growth is estimated with an SRB protein assay.
The test compounds were evaluated against approximately 60 human tumour cell lines. The NCI screening procedures were described in detail by Monks and co-workers (Monks, A et al., Journal of the National Cancer Institute, 1991, 83, 757). Briefly, cell suspensions were diluted according to the particular cell type and the expected target cell density (5000-40,000 cells per well based on cell growth characteristics), and added by pipette (100 μL) into 96-well microtitre plates. The cells were allowed a preincubation period of 24 hours at 37° C. for stabilisation. Dilutions at twice the intended test concentration were added at time zero in 100 μL aliquots to the wells. The test compounds were evaluated at five 10-fold dilutions (10^−4, 10^−5, 10^−6, 10^−7 and 10^−[…]). The test compounds were incubated for 48 hours in 5% CO2 atmosphere and 100% humidity. The cells were then assayed using the sulphorhodamine B assay. A plate reader was used to read the optical densities and a microcomputer processed the readings into GI50 values (in Moles), which is the dosage required to limit cell growth to 50%.

[3] = system: K562 human chronic myeloid leukaemia cells; assay: In vitro cytotoxicity, K562 cells, MTT assay; type: cell-based; conditions: Homo sapiens
Method: K562 human chronic myeloid leukaemia cells were maintained in RPM1 1640 medium supplemented with 10% fetal calf serum and 2 mM glutamine at 37° C. in a humidified atmosphere containing 5% CO2 and were incubated with a specified dose of drug for 1 hour or 96 hours at 37° C. in the dark. The incubation was terminated by centrifugation (5 min, 300 g) and the cells were washed once with drug-free medium. Following the appropriate drug treatment, the cells were transferred to 96-well microtiter plates (10^4 cells per well, 8 wells per sample). Plates were then kept in the dark at 37° C. in a humidified atmosphere containing 5% CO2. The assay is based on the ability of viable cells to reduce a yellow soluble tetrazolium salt, 3-(4,5-dimethylthiazol-2-yl)-2,5-diphenyl-2H-tetrazolium bromide (MTT, Aldrich-Sigma), to an insoluble purple formazan precipitate. Following incubation of the plates for 4 days (to allow control cells to increase in number by approximately 10 fold), 20 μL of MTT solution (5 mg/mL in phosphate-buffered saline) was added to each well and the plates further incubated for 5 hours. The plates were then centrifuged for 5 minutes at 300 g and the bulk of the medium pipetted from the cell pellet leaving 10-20 μL per well. DMSO (200 μL) was added to each well and the samples agitated to ensure complete mixing. The optical density was then read at a wavelength of 550 nm on a Titertek Multiscan ELISA plate reader, and a dose-response curve was constructed. For each curve, an IC50 value was read as the dose required to reduce the final optical density to 50% of the control value.

[4] = 1 hr exposure, read-out: IC50 1 hr exposure

Compound	pEC50 [1]	GI50 [2] [nM]	pIC50 [3, 4]	pIC50 ([3]; 96 hr exposure, sub-table of 16e-j, read-out: IC50 96 hr exposure)
COc1ccc2c(c1)C(=O)N1CCC(OCCCCCOC3CCN4C(=O)c5cc(OC)ccc5N=C[C@@H]34)[C@@H]1C=N2 (stereo partly drawn) [Compound 16c, 1,1′-[(Pentane-1,5-diyl)dioxy]bis[(11aS)-7-methoxy-1,2,3,11a-tetrahydro-5H-pyrrolo[2,1-c][1,4]benzodiazepine-5-one]]	7.15	15	6.30	
COc1ccc2c(c1)C(=O)N1CCC(OCCCCCCCCOC3CCN4C(=O)c5cc(OC)ccc5N=C[C@@H]34)[C@@H]1C=N2 (stereo partly drawn) [Compound 16f, 1,1′-[(Octane-1,8-diyl)dioxy]bis[(11aS)-7-methoxy-1,2,3,11a-tetrahydro-5H-pyrrolo[2,1-c][1,4]benzodiazepine-5-one]]	5.85	19		8.35
COc1ccc2c(c1)N=C[C@H]1C(OCCCCCCCCCCOC3CCN4C(=O)c5ccc(OC)cc5N=C[C@@H]34)CCN1C2=O (stereo partly drawn) [Compound 9h, 1,1′-[(Decane-1,10-diyl)dioxy]bis[(11aS)-8-methoxy-1,2,3,11a-tetrahydro-5H-pyrrolo[2,1-c][1,4]benzodiazepine-5-one]]	6.77	1120	4.79	
COc1ccc2c(c1)N=C[C@H]1C(OCCCCCCCCCCCOC3CCN4C(=O)c5ccc(OC)cc5N=C[C@@H]34)CCN1C2=O (stereo partly drawn) [Compound 9i, 1,1′-[(Undecane-1,11-diyl)dioxy]bis[(11aS)-8-methoxy-1,2,3,11a-tetrahydro-5H-pyrrolo[2,1-c][1,4]benzodiazepine-5-one]]	6.72	570	5.05	
COc1ccc2c(c1)C(=O)N1CCC(OCCCCOC3CCN4C(=O)c5cc(OC)ccc5N=C[C@@H]34)[C@@H]1C=N2 (stereo partly drawn) [Compound 16b, 1,1′-[(Butane-1,4-diyl)dioxy]bis[(11aS)-7-methoxy-1,2,3,11a-tetrahydro-5H-pyrrolo[2,1-c][1,4]benzodiazepine-5-one]]	6.00	2510	5.60	
COc1ccc2c(c1)N=C[C@H]1C(OCCCCCCCCCOC3CCN4C(=O)c5ccc(OC)cc5N=C[C@@H]34)CCN1C2=O (stereo partly drawn) [Compound 9g, 1,1′-[(Nonane-1,9-diyl)dioxy]bis[(11aS)-8-methoxy-1,2,3,11a-tetrahydro-5H-pyrrolo[2,1-c][1,4]benzodiazepine-5-one]]	6.01	570	4.76	
